Test results reported in publication PMC11062922 (Nature Chemical Biology, 2023).
Where two headings read alike, the source gives them in different places.

Legend:
[1] = tested on: ARAF; assay: Kinobeads competition binding: ARAF; set-up: species or system human; conditions: target ARAF
[2] = biological target: T1, BUB1 (Homo sapiens, UniProt O43683); assay: Kinobeads competition binding: BUB1; conditions: target BUB1
T1 construct: endogenous in cells

[3] = tested on: CDC42BPG; assay: Kinobeads competition binding: CDC42BPG; set-up: species or system human; conditions: target CDC42BPG
[4] = tested on: CLK2; assay: Kinobeads competition binding: CLK2; set-up: species or system human; conditions: target CLK2
[5] = biological target: T2, DYRK1A (Homo sapiens, UniProt Q13627); assay: Kinobeads competition binding: DYRK1A; conditions: target DYRK1A
T2 construct: endogenous in cells

[6] = biological target: T3, EPHA5 (Homo sapiens, UniProt P54756); assay: Kinobeads competition binding: EPHA5; conditions: target EPHA5
T3 construct: endogenous in cells
Description: Supplement 41589_2023_1459_MOESM4_ESM.xlsx, sheet "CATDS matrix" | column: EPHA5

[7] = biological target: T4, EPHA7 (Homo sapiens, UniProt Q15375); assay: Kinobeads competition binding: EPHA7; conditions: target EPHA7
T4 construct: endogenous in cells
Description: Supplement 41589_2023_1459_MOESM4_ESM.xlsx, sheet "CATDS matrix" | column: EPHA7

[8] = biological target: T5, EPHB2 (Homo sapiens, UniProt P29323); assay: Kinobeads competition binding: EPHB2; conditions: target EPHB2;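 note: target engagement share of this target among all targets at its Kdapp concentration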
T5 construct: endogenous in cells
T5 sequence (P29323 19-1055): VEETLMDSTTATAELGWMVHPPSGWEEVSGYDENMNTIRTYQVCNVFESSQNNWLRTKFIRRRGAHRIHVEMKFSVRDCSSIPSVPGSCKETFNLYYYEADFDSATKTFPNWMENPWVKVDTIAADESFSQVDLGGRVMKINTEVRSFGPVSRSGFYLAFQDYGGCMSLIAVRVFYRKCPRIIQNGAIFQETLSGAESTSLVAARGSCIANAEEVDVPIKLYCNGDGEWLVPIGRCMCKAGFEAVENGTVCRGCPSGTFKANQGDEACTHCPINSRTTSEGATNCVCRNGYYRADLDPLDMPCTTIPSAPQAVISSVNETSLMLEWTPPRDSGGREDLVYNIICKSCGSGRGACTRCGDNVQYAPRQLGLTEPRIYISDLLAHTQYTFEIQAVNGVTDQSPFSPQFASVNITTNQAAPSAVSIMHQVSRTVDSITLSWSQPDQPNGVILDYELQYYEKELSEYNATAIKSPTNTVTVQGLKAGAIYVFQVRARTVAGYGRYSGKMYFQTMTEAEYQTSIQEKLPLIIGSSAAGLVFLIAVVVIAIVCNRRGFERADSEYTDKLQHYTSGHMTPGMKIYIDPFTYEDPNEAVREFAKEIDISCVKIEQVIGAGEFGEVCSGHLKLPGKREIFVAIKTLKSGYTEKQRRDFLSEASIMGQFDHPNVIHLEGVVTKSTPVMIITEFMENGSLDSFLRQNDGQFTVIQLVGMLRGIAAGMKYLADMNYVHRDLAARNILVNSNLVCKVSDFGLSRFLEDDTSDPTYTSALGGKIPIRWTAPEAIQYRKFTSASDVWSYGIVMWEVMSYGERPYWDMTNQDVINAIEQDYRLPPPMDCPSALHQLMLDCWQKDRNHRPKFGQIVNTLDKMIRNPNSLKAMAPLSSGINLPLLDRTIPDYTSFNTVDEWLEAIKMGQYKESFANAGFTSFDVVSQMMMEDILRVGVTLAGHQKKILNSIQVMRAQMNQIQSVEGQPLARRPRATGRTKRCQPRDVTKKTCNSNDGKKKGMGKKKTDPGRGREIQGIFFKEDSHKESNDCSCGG
Description: Supplement 41589_2023_1459_MOESM4_ESM.xlsx, sheet "CATDS matrix" | column: EPHB2

[9] = biological target: T6, ERN2 (Homo sapiens, UniProt Q76MJ5); assay: Kinobeads competition binding: ERN2; conditions: target ERN2
T6 construct: endogenous in cells

[10] = biological target: T7, FLT4 (Homo sapiens, UniProt P35916); assay: Kinobeads competition binding: FLT4; conditions: target FLT4;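 note: share of total target engagement due to this protein at one drug concentration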
T7 construct: endogenous in cells

[11] = tested on: ILK; assay: Kinobeads competition binding: ILK; set-up: species or system human; conditions: target ILK
[12] = tested on: IRAK1; assay: Kinobeads competition binding: IRAK1; set-up: species or system human; conditions: target IRAK1
[13] = biological target: T8, MAPK14 (Homo sapiens, UniProt Q16539); assay: Kinobeads competition binding: MAPK14; conditions: target MAPK14
T8 construct: endogenous in cells

[14] = tested on: MTHFD1; assay: Kinobeads competition binding: MTHFD1; set-up: species or system human; conditions: target MTHFD1;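 note: selectivity score: engagement of this protein divided by summed engagement of all targets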
[15] = tested on: NEK2; assay: Kinobeads competition binding: NEK2; set-up: species or system human; conditions: target NEK2
[16] = tested on: NNT; assay: Kinobeads competition binding: NNT; set-up: species or system human; conditions: target NNT;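 note: share of total target engagement due to this protein at one drug concentration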
[17] = biological target: T9, NQO1 (Homo sapiens, UniProt P15559); assay: Kinobeads competition binding: NQO1; conditions: target NQO1
T9 construct: endogenous in cells
Description: Supplement 41589_2023_1459_MOESM4_ESM.xlsx, sheet "CATDS matrix" | column: NQO1

[18] = biological target: T10, PIK3C3 (Homo sapiens, UniProt Q8NEB9); assay: Kinobeads competition binding: PIK3C3; conditions: target PIK3C3
T10 construct: a mixture of lysates from five cancer cell lines; endogenous in cells

[19] = biological target: T11, PKN2 (Homo sapiens, UniProt Q16513); assay: Kinobeads competition binding: PKN2; conditions: target PKN2;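 note: share of total target engagement due to this protein at one drug concentration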
T11 construct: a mixture of lysates from five cancer cell lines; endogenous in cells
Description: Supplement 41589_2023_1459_MOESM4_ESM.xlsx, sheet "CATDS matrix" | column: PKN2

[20] = biological target: PKN3 (Homo sapiens, UniProt Q6P5Z2); assay: NanoBRET in-cell target engagement in HEK293T cells: PKN3; format: cell-based; set-up: full-length PKN3, CSNK2A1 or CSNK2A2 ORF; host or cells: HEK293T;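 note: Full-length PKN3 with C-terminal NanoLuc expressed in HEK293T cells, serial inhibitor dilutions competing against Kinase Tracer K5 at 500 nM, BRET read after 2 h at 37 °C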
[21] = HEK293T cells, in-cell target engagement, read-out: IC50 PKN3 NanoBRET
[22] = average of replicates, read-out: Average of IC50 values NanoBRET PKN3
[23] = biological replicate number 1, read-out: Rep 1 IC50 NanoBRET PKN3
[24] = biological replicate number 2, read-out: Rep 2 IC50 NanoBRET PKN3
[25] = biological replicate number 3, read-out: Rep 3 IC50 NanoBRET PKN3
[26] = biological replicate number 4, read-out: Rep 4 IC50 NanoBRET PKN3

| Compound | CATDS [1] | CATDS [2] | CATDS [3] | CATDS [4] | CATDS [5] | CATDS [6] | CATDS [7] | CATDS [8] | CATDS [9] | CATDS [10] | CATDS [11] | CATDS [12] | CATDS [13] | CATDS [14] | CATDS [15] | CATDS [16] | CATDS [17] | CATDS [18] | CATDS [19] | IC50 [20, 21] [nM] | further results |
| --- | --- | --- | --- | --- | --- | --- | --- | --- | --- | --- | --- | --- | --- | --- | --- | --- | --- | --- | --- | --- | --- |
| CCc1cc2c(cc1N1CCC(N3CCOCC3)CC1)C(C)(C)c1[nH]c3cc(C#N)ccc3c1C2=O [Alectinib] | 0 | 0 | 0 | 0 | 0 | 0 | 0 | 0 | 0 | 0 | 0 | 0 | 0 | 0 | 0 | 0 | 0 | 0 | 0 | – | – |
| CN(C)C/C=C/C(=O)Nc1cc2c(Nc3ccc(F)c(Cl)c3)ncnc2cc1O[C@H]1CCOC1 [Afatinib] | 0 | – | – | – | – | 0 | 0 | 0 | – | – | – | – | – | 0 | – | 0 | 0 | – | 0 | – | – |
| NCc1ccc(-c2nc(-c3ccncc3)c(-c3ccc(Cl)c(O)c3)[nH]2)cc1 [SB-476429-A] | – | – | – | – | – | – | – | – | – | – | – | – | – | – | – | – | – | – | – | 85 | IC50 [20, 22]: 243 nM; IC50 [20, 23]: 589 nM; IC50 [20, 24]: 211 nM; IC50 [20, 25]: 86.7 nM; IC50 [20, 26]: 85.4 nM |
| Nc1ncnc2[nH]c(-c3ccccc3)nc12 [AH5015_KCGS] | 0 | 0 | 0 | 0 | 0 | 0.02942 | 0 | 0.02863 | 0 | 0 | 0 | 0 | 0 | 0 | 0 | 0 | 0 | 0 | 0 | – | – |
| CCN1CCN(Cc2ccc(Nc3ncc(F)c(-c4cc(F)c5nc(C)n(C(C)C)c5c4)n3)nc2)CC1 [Abemaciclib] | 0 | 0 | 0 | 0 | – | 0 | 0 | 0 | 0 | 0 | 0 | 0.02986 | 0 | 0 | 0 | 0 | 0 | 0 | 0 | – | – |
| CCn1c(-c2nonc2N)nc2c(C#CC(C)(C)O)nc(OCCN)cc21 [GSK902056A] | – | – | – | – | – | – | – | – | – | – | – | – | – | – | – | – | – | – | – | 79 | IC50 [20, 22]: 99.2 nM; IC50 [20, 23]: 234 nM; IC50 [20, 24]: 56.5 nM; IC50 [20, 25]: 27 nM; IC50 [20, 26]: 79.2 nM |
| N#CC1(c2ccc(NC(=O)c3cccnc3NCc3ccncc3)cc2)CCCC1 [Apatinib] | 0 | 0 | 0 | 0 | 0 | 0 | 0 | 0 | 0 | 0 | 0 | 0 | 0 | 0 | 0 | 0 | 0 | 0 | 0 | – | – |
| CCn1c(-c2nonc2N)nc2c(C#CC(C)(C)O)nc(OCCNC)cc21 [GSK949675A] | – | – | – | – | – | – | – | – | – | – | – | – | – | – | – | – | – | – | – | 136 | IC50 [20, 22]: 669 nM; IC50 [20, 23]: 1950 nM; IC50 [20, 24]: 441 nM; IC50 [20, 25]: 149 nM |
